Laboratory results from publication PMC4890880 (ACS infectious diseases, 2016).
pIC50: −log10 of the molar value. Read-outs that look alike come from different tables or passages of the source.

Experiments:
[1] = system: Plasmodium berghei (Pb-Luc) exoerythrocytic-stage parasites; conditions: for normalized signal at 0.000508053 (first series): concentration 0.000508053, first replicate series; for normalized signal at 0.000508053 (first series) / normalized signal at 0.000508053 (second series) / normalized signal at 0.00152416 (first series) / normalized signal at 0.00152416 (second series) / normalized signal at 0.00457247 (first series) / normalized signal at 0.00457247 (second series) / normalized signal at 0.0137174 (first series) / normalized signal at 0.0137174 (second series) / normalized signal at 0.0411523 (first series) / normalized signal at 0.0411523 (second series) / normalized signal at 0.123457 (first series) / normalized signal at 0.123457 (second series) / normalized signal at 0.37037 (first series) / normalized signal at 0.37037 (second series) / normalized signal at 1.11111 (first series) / normalized signal at 1.11111 (second series) / normalized signal at 3.33333 (first series) / normalized signal at 3.33333 (second series) / normalized signal at 10 (first series) / normalized signal at 10 (second series): fraction of control; for normalized signal at 0.000508053 (second series): concentration 0.000508053, second replicate series; for normalized signal at 0.00152416 (first series): concentration 0.00152416, first replicate series; for normalized signal at 0.00152416 (second series): concentration 0.00152416, second replicate series; for normalized signal at 0.00457247 (first series): concentration 0.00457247, first replicate series; for normalized signal at 0.00457247 (second series): concentration 0.00457247, second replicate series; for normalized signal at 0.0137174 (first series): concentration 0.0137174, first replicate series; for normalized signal at 0.0137174 (second series): concentration 0.0137174, second replicate series; for normalized signal at 0.0411523 (first series): concentration 0.0411523, first replicate series; for normalized signal at 0.0411523 (second series): concentration 0.0411523, second replicate series; for normalized signal at 0.123457 (first series): concentration 0.123457, first replicate series; for normalized signal at 0.123457 (second series): concentration 0.123457, second replicate series; for normalized signal at 0.37037 (first series): concentration 0.37037, first replicate series; for normalized signal at 0.37037 (second series): concentration 0.37037, second replicate series; for normalized signal at 1.11111 (first series): concentration 1.11111, first replicate series; for normalized signal at 1.11111 (second series): concentration 1.11111, second replicate series; for normalized signal at 3.33333 (first series): concentration 3.33333, first replicate series; for normalized signal at 3.33333 (second series): concentration 3.33333, second replicate series; for normalized signal at 10 (first series): concentration 10, first replicate series; for normalized signal at 10 (second series): concentration 10, second replicate series; for pIC50: read-out: PbLuc_IC50; for normalised signal at concentration 10 (first series): concentration 10, first series of dose columns; for normalised signal at concentration 10 (second series): concentration 10, second series of dose columns
HepG2-A16-CD81EGFP cells = conditions: for pIC50: read-out: Tox_IC50, HepG2 cytotoxicity
[2] = 2nd round, maximal inhibition in dose series
[3] = 2nd round, Broad DOS compounds, unit not printed (dose series head 10 to 0.000508053)
[4] = sheet "2nd round", Broad compounds, dose response top concentration 10

COc1ccc(NC(=O)N(C)C[C@H]2Oc3c(NC(=O)CCCCCC(=O)Nc4ccccc4N)cccc3C(=O)N([C@H](C)CO)C[C@H]2C)cc1 [BRD-K75018854-001-01-2]
PbLuc_max_inhibition (%) [1, 2]: 27% | normalized signal at 0.000508053 (first series) [1]: 1.05 | normalized signal at 0.000508053 (second series) [1]: 0.8619 | normalized signal at 0.00152416 (first series) [1]: 0.9022 | normalized signal at 0.00152416 (second series) [1]: 0.7297 | normalized signal at 0.00457247 (first series) [1]: 1.1676 | normalized signal at 0.00457247 (second series) [1]: 0.8627 | normalized signal at 0.0137174 (first series) [1]: 0.9808 | normalized signal at 0.0137174 (second series) [1]: 0.929 | normalized signal at 0.0411523 (first series) [1]: 1.1704 | normalized signal at 0.0411523 (second series) [1]: 0.8231 | normalized signal at 0.123457 (first series) [1]: 1.053 | normalized signal at 0.123457 (second series) [1]: 1.0322 | normalized signal at 0.37037 (first series) [1]: 0.9438 | normalized signal at 0.37037 (second series) [1]: 0.8176 | normalized signal at 1.11111 (first series) [1]: 0.9278 | normalized signal at 1.11111 (second series) [1]: 0.8826 | normalized signal at 3.33333 (first series) [1]: 1.001 | normalized signal at 3.33333 (second series) [1]: 1.022 | normalized signal at 10 (first series) [1]: 0.9917 | normalized signal at 10 (second series) [1]: 1.205 | pIC50 [1, 3]: < 5.00 | Tox_max_inhibition (%) (HepG2-A16-CD81EGFP cells; [2]): 8% | pIC50 (HepG2-A16-CD81EGFP cells; 2nd round, unit inferred): < 5.00

O=C(Nc1ccccc1F)N1CCCCN2[C@@H](CO)[C@@H](c3ccc(/C=C/c4ccccc4)cc3)[C@@H]2C1 [BRD-K75724375-001-01-5]
normalised signal at concentration 0.000508053 (first series) [1]: 0.9105 | normalised signal at concentration 0.000508053 (second series) [1]: 0.9278 | normalised signal at concentration 0.00152416 (first series) [1]: 1.073 | normalised signal at concentration 0.00152416 (second series) [1]: 0.9037 | normalised signal at concentration 0.00457247 (first series) [1]: 0.819 | normalised signal at concentration 0.00457247 (second series) [1]: 0.9578 | normalised signal at concentration 0.0137174 (first series) [1]: 0.8286 | normalised signal at concentration 0.0137174 (second series) [1]: 0.9852 | normalised signal at concentration 0.0411523 (first series) [1]: 0.8408 | normalised signal at concentration 0.0411523 (second series) [1]: 0.7698 | normalised signal at concentration 0.123457 (first series) [1]: 0.9337 | normalised signal at concentration 0.123457 (second series) [1]: 1.085 | normalised signal at concentration 0.37037 (first series) [1]: 0.7789 | normalised signal at concentration 0.37037 (second series) [1]: 1.01 | normalised signal at concentration 1.11111 (first series) [1]: 1.025 | normalised signal at concentration 1.11111 (second series) [1]: 0.8416 | normalised signal at concentration 3.33333 (first series) [1]: 0.8686 | normalised signal at concentration 3.33333 (second series) [1]: 0.672 | normalised signal at concentration 10 (first series) [1]: 0.5018 | normalised signal at concentration 10 (second series) [1]: 0.4819 | pIC50 [1, 4]: < 5.00 | PbLuc_max_inhibition (%) ([1]; sheet "2nd round"): 52% | pIC50 (HepG2-A16-CD81EGFP cells; sheet "2nd round"): < 5.00 | Tox_max_inhibition (%) (HepG2-A16-CD81EGFP cells; sheet "2nd round"): 3.77%

C[C@@H]1CN([C@H](C)CO)C(=O)c2ccccc2-c2ccccc2CO[C@H]1CN(C)C(=O)[C@H](Cc1ccccc1)N(C)C [BRD-K75961033-001-01-7]
PbLuc_max_inhibition (%) [1, 2]: 45% | normalized signal at 0.000508053 (first series) [1]: 1.06 | normalized signal at 0.000508053 (second series) [1]: 0.8091 | normalized signal at 0.00152416 (first series) [1]: 0.9571 | normalized signal at 0.00152416 (second series) [1]: 0.6896 | normalized signal at 0.00457247 (first series) [1]: 0.9675 | normalized signal at 0.00457247 (second series) [1]: 0.699 | normalized signal at 0.0137174 (first series) [1]: 1.117 | normalized signal at 0.0137174 (second series) [1]: 0.795 | normalized signal at 0.0411523 (first series) [1]: 0.9735 | normalized signal at 0.0411523 (second series) [1]: 0.8267 | normalized signal at 0.123457 (first series) [1]: 0.9249 | normalized signal at 0.123457 (second series) [1]: 0.6648 | normalized signal at 0.37037 (first series) [1]: 0.9974 | normalized signal at 0.37037 (second series) [1]: 0.9501 | normalized signal at 1.11111 (first series) [1]: 1.014 | normalized signal at 1.11111 (second series) [1]: 0.8135 | normalized signal at 3.33333 (first series) [1]: 0.9327 | normalized signal at 3.33333 (second series) [1]: 0.5506 | normalized signal at 10 (first series) [1]: 0.7489 | normalized signal at 10 (second series) [1]: 0.6892 | pIC50 [1, 3]: < 5.00 | Tox_max_inhibition (%) (HepG2-A16-CD81EGFP cells; [2]): 5.71% | pIC50 (HepG2-A16-CD81EGFP cells; 2nd round, unit inferred): < 5.00

C[C@@H]1CCCCO[C@H](CN(C)S(=O)(=O)c2ccc(F)cc2)[C@H](C)CN([C@H](C)CO)C(=O)c2cc(N(C)C)ccc2O1 [BRD-K77041516-001-01-2]
normalised signal at concentration 0.000508053 (first series) [1]: 1.187 | normalised signal at concentration 0.000508053 (second series) [1]: 0.9225 | normalised signal at concentration 0.00152416 (first series) [1]: 0.8332 | normalised signal at concentration 0.00152416 (second series) [1]: 0.8694 | normalised signal at concentration 0.00457247 (first series) [1]: 0.9468 | normalised signal at concentration 0.00457247 (second series) [1]: 0.8206 | normalised signal at concentration 0.0137174 (first series) [1]: 0.8125 | normalised signal at concentration 0.0137174 (second series) [1]: 0.9272 | normalised signal at concentration 0.0411523 (first series) [1]: 0.9511 | normalised signal at concentration 0.0411523 (second series) [1]: 0.9568 | normalised signal at concentration 0.123457 (first series) [1]: 1.006 | normalised signal at concentration 0.123457 (second series) [1]: 0.7947 | normalised signal at concentration 0.37037 (first series) [1]: 0.8766 | normalised signal at concentration 0.37037 (second series) [1]: 1.201 | normalised signal at concentration 1.11111 (first series) [1]: 1.15 | normalised signal at concentration 1.11111 (second series) [1]: 1.082 | normalised signal at concentration 3.33333 (first series) [1]: 0.9005 | normalised signal at concentration 3.33333 (second series) [1]: 1.135 | normalised signal at concentration 10 (first series) [1]: 0.8572 | normalised signal at concentration 10 (second series) [1]: 0.9617 | pIC50 [1, 4]: < 5.00 | PbLuc_max_inhibition (%) ([1]; sheet "2nd round"): 21% | pIC50 (HepG2-A16-CD81EGFP cells; sheet "2nd round"): < 5.00 | Tox_max_inhibition (%) (HepG2-A16-CD81EGFP cells; sheet "2nd round"): 4.38%

C[C@@H]1CCCCO[C@H](CN(C)S(=O)(=O)c2ccc(F)cc2)[C@H](C)CN([C@@H](C)CO)C(=O)c2cc(N(C)C)ccc2O1 [BRD-K77718491-001-01-4]
normalised signal at concentration 0.000508053 (first series) [1]: 0.8436 | normalised signal at concentration 0.000508053 (second series) [1]: 0.9419 | normalised signal at concentration 0.00152416 (first series) [1]: 1.131 | normalised signal at concentration 0.00152416 (second series) [1]: 0.8322 | normalised signal at concentration 0.00457247 (first series) [1]: 0.8284 | normalised signal at concentration 0.00457247 (second series) [1]: 0.9071 | normalised signal at concentration 0.0137174 (first series) [1]: 1.006 | normalised signal at concentration 0.0137174 (second series) [1]: 0.921 | normalised signal at concentration 0.0411523 (first series) [1]: 0.8082 | normalised signal at concentration 0.0411523 (second series) [1]: 0.9497 | normalised signal at concentration 0.123457 (first series) [1]: 0.9873 | normalised signal at concentration 0.123457 (second series) [1]: 0.8645 | normalised signal at concentration 0.37037 (first series) [1]: 0.8615 | normalised signal at concentration 0.37037 (second series) [1]: 0.9228 | normalised signal at concentration 1.11111 (first series) [1]: 0.9968 | normalised signal at concentration 1.11111 (second series) [1]: 0.8769 | normalised signal at concentration 3.33333 (first series) [1]: 0.7967 | normalised signal at concentration 3.33333 (second series) [1]: 1.06 | normalised signal at concentration 10 (first series) [1]: 0.9825 | normalised signal at concentration 10 (second series) [1]: 0.8275 | pIC50 [1, 4]: < 5.00 | PbLuc_max_inhibition (%) ([1]; sheet "2nd round"): 20% | pIC50 (HepG2-A16-CD81EGFP cells; sheet "2nd round"): < 5.00 | Tox_max_inhibition (%) (HepG2-A16-CD81EGFP cells; sheet "2nd round"): 7%
